Results: publication PMC9939733 (The Journal of Biological Chemistry, 2023)
Numbering of substitutions follows the chain as printed.

Legend:
Type in all cases: biochemical
WT IDH1 [1] = molecular target: T1, WT IDH1 (Homo sapiens, UniProt O75874); test: Absorbance assay, substrate activity in the absence of DL-isocitrate; details: no DL-isocitrate; […] test compound, 75 μM NADP+, 2.0 nM WT IDH1; compared to DL-isocitrate
T1 construct: made in house; host or cells: Escherichia coli BL21(DE3) pLyS
Method in brief: (§1)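 Compound was added to all wells at once with a multichannel pipettor. Reagent was then dispensed to start the reaction. Every condition was done in four technical replicates.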

WT IDH2 [2] = molecular target: T2, WT IDH2 (Homo sapiens, UniProt P48735); test: as above; details: no DL-isocitrate; […] test compound, 75 μM NADP+, 2.0 nM WT IDH2; compared to DL-isocitrate
T2 construct: made in house; host or cells: Sf21 insect cells (cell pellets prepared at Evotec)
T2 sequence (P48735 40-452): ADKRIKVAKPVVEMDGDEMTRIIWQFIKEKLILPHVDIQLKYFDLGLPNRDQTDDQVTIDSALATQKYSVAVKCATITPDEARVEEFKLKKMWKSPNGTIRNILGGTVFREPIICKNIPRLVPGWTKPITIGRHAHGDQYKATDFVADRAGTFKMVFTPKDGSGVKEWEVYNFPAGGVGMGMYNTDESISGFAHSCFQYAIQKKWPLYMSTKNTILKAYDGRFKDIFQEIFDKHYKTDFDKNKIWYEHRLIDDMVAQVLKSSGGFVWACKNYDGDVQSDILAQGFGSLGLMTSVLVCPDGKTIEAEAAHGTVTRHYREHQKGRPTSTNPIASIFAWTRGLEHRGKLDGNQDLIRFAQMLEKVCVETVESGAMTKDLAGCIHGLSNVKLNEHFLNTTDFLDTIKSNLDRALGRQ
Method in brief: as §1

R140Q IDH2 [3] = molecular target: T3, R140Q IDH2 (Homo sapiens, UniProt P48735, R140Q); test: Steady-state kinetics, absorbance assay; details: 0.03 μM enzyme, 50 μM NADPH, 20 mM MgCl2, pH 8.0
T3 construct: made in house; host or cells: Sf21 insect cells (cell pellets prepared at Evotec)
T3 sequence (P48735 40-452 R140Q): T2 sequence (P48735 40-452) with R101Q
Description: Compounds were dispensed using a CyBio SDW-CW CyBi-Well Simultaneous Pipettor and assay started using a ThermoFisher Multidrop Combi reagent dispenser.
Reactions were performed as technical duplicates, and all assays were carried out in two independent duplicates.

R132H IDH1 [4] = molecular target: T4, R132H IDH1 (Homo sapiens, UniProt O75874, R132H); test: Absorbance assay, variant activity in the presence of equimolar 2OG (inhibition screen); set-up: made in house; host or cells: Escherichia coli BL21(DE3) pLyS; details: […] 2OG and […] test compound, 0.03 μM R132H IDH1, 50 μM NADPH
Method in brief: as §1

WT IDH1 [5] = molecular target: T1, WT IDH1; test: Absorbance assay, WT activity in the presence of equimolar DL-isocitrate (inhibition); details: […] isocitrate and […] test compound, 75 μM NADP+, 2.0 nM WT IDH1
Method in brief: as §1

WT IDH2 [6] = molecular target: T2, WT IDH2; test: as above; details: […] isocitrate and […] test compound, 75 μM NADP+, 2.0 nM WT IDH2
Method in brief: as §1

R172K IDH2 [7] = molecular target: T5, R172K IDH2 (Homo sapiens, UniProt P48735, R172K); test: Absorbance assay, variant activity in the presence of equimolar 2OG (inhibition screen); details: 1.0 mM 2OG and 1.0 mM test compound, 0.03 μM R172K IDH2, 50 μM NADPH
T5 construct: made in house; host or cells: Sf21 insect cells (cell pellets prepared at Evotec)
T5 sequence (P48735 40-452 R172K): T2 sequence (P48735 40-452) with R133K
Method in brief: as §1

R140Q IDH2 [8] = molecular target: T3, R140Q IDH2; test: as above; details: 6.0 mM 2OG and 6.0 mM test compound, 0.03 μM R140Q IDH2, 50 μM NADPH
Method in brief: as §1

R132H IDH1 [9] = molecular target: T4, R132H IDH1; test: Absorbance assay (NADPH consumption), substrate turnover in the absence of 2OG; set-up: made in house; host or cells: Escherichia coli BL21(DE3) pLyS; details: no 2OG; […] test compound, 0.03 μM R132H IDH1, 50 μM NADPH; 2OG = 100
Method in brief: as §1

R172K IDH2 [10] = molecular target: T5, R172K IDH2; test: as above; details: no 2OG; 1.0 mM test compound, 0.03 μM R172K IDH2, 50 μM NADPH; 2OG = 100
Method in brief: as §1

R140Q IDH2 [11] = molecular target: T3, R140Q IDH2; test: as above; details: no 2OG; 6.0 mM test compound, 0.03 μM R140Q IDH2, 50 μM NADPH; 2OG = 100
Method in brief: as §1

T4 sequence (O75874 whole entry R132H): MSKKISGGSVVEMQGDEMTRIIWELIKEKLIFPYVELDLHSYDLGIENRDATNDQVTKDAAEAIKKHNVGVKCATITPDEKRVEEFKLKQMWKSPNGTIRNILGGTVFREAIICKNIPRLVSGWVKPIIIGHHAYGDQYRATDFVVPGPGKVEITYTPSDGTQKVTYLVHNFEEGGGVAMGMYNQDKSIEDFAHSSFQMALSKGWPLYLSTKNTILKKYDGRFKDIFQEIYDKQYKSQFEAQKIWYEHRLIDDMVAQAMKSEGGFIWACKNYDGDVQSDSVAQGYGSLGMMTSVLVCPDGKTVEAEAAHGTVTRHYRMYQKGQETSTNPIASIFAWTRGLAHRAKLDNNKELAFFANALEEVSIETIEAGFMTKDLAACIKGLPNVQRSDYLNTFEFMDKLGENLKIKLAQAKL
T1 sequence (O75874 whole entry): as the sequence (O75874 whole entry R132H) above, with H132R counted along it

Row | Compound | activity [%] (%-substrate conversion after 20 min incubation) (WT IDH1 [1]) | activity [%] (%-substrate conversion after 20 min incubation) (WT IDH2 [2]) | Kmapp (R140Q IDH2 [3]) [mM] | activity [%] (%-substrate conversion after 20 min incubation) (R132H IDH1 [4]) | activity [%] (%-substrate conversion after 20 min incubation) (WT IDH1 [5]) | activity [%] (%-substrate conversion after 20 min incubation) (WT IDH2 [6]) | activity [%] (%-substrate conversion after 20 min incubation) (R172K IDH2 [7]) | activity [%] (%-substrate conversion after 20 min incubation) (R140Q IDH2 [8]) | activity [%] (%-substrate conversion after 20 min incubation) (R132H IDH1 [9]) | activity [%] (%-substrate conversion after 20 min incubation) (R172K IDH2 [10]) | activity [%] (%-substrate conversion after 20 min incubation) (R140Q IDH2 [11])
1 | O=C(O)CC(Cc1ccccc1)C(=O)C(=O)O (stereo not shown) [compound 7, 3-benzyl-2OG] | < 10 | < 10 | 3.8 to 7.5 | 229 ± 21 | 94±1 | 99±1 | 114 ± 4 | 91 ± 8 | – | – | –
2 | CCC(CC(=O)O)C(=O)C(=O)O (racemic) [compound 2] | < 10 | < 10 | 3.8 to 7.5 | 317 ± 12 | 98±10 | 96±3 | 131 ± 16 | 865 ± 78 | – | – | –
3 | CC(O)C(=O)O (racemic) [DL-lactic acid] | < 10 | < 10 | – | 104 ± 8 | 105 ± 6 | 95 ± 5 | 100 ± 8 | 115 ± 9 | < 10 | < 10 | < 10
4 | C/C(=C\C(=O)O)C(=O)O [mesaconic acid] | < 10 | < 10 | – | 105 ± 3 | 105 ± 2 | 100 ± 2 | 104 ± 5 | 116 ± 9 | < 10 | < 10 | < 10
5 | CC(CC(=O)O)C(=O)O (racemic) [DL-2-methylsuccinic acid] | < 10 | < 10 | – | 104 ± 3 | 103 ± 2 | 99 ± 3 | 102 ± 9 | 115 ± 12 | < 10 | < 10 | < 10
